Several values for one entry are separate records, joined by “and”; a condition that tells them apart may be missing. Equal entries are not always repeated. Toxic doses and inconclusive results are not listed.
System: L1210 leukemia ip in BDF1 mice, survival T/C
Assay: NCI In Vivo Anticancer Drug Screen. Data for tumor model L1210 Leukemia (intraperitoneal) in B6D2F1 (BDF1) mice
Settings: higher = longer survival
Method in brief: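 Tumor was transplanted into mice, which were then dosed with test compound or vehicle alone. Survival was recorded for each group, and the treated figure was expressed relative to the control figure.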

`CC[C@H]1CN2CCc3cc(OC)c(OC)cc3[C@@H]2C[C@@H]1C[C@H]1NCCc2cc(OC)c(OC)cc21` was tested, and the T/C (endpoint: mean survival time, dose: 0.93 mg/kg/injection, schedule: Q04DX003 (ip), vehicle: water) was 108 % of control, the T/C (endpoint: mean survival time, dose: 1.0 mg/kg/injection, schedule: Q01DX009 (ip), vehicle: saline) was 109 % of control and the T/C (endpoint: mean survival time, dose: 1.75 mg/kg/injection, schedule: Q01DX009 (ip), vehicle: saline) was 115 % of control and 121 % of control. The T/C (endpoint: mean survival time, dose: 1.8 mg/kg/injection, schedule: Q01DX009 (ip), vehicle: saline) was 104 % of control and 120 % of control, the T/C (endpoint: mean survival time, dose: 1.86 mg/kg/injection, schedule: Q04DX003 (ip), vehicle: water) was 105 % of control and the T/C (endpoint: mean survival time, dose: 1.88 mg/kg/injection, schedule: Q01DX001 (ip), vehicle: water) was 102 % of control. For the same compound, the T/C (endpoint: mean survival time, dose: 2.0 mg/kg/injection, schedule: Q01DX005 (iv), vehicle: saline) was 108 % of control, the T/C (endpoint: mean survival time, dose: 2.0 mg/kg/injection, schedule: Q01DX005 (oral), vehicle: saline) was 103 % of control and the T/C (endpoint: mean survival time, dose: 2.0 mg/kg/injection, schedule: Q01DX005 (sc), vehicle: saline) was 105 % of control. For the same compound, the T/C (endpoint: mean survival time, dose: 2.0 mg/kg/injection, schedule: Q01DX006 (ip), vehicle: saline) was 112 % of control, the T/C (endpoint: mean survival time, dose: 2.0 mg/kg/injection, schedule: Q01DX009 (ip), vehicle: saline) was 108 % of control and the T/C (endpoint: mean survival time, dose: 2.0 mg/kg/injection, schedule: Q04DX003 (ip), vehicle: saline) was 100 % of control. The T/C (endpoint: mean survival time, dose: 2.0 mg/kg/injection, schedule: Q04DX003 (iv), vehicle: saline) was 110 % of control, the T/C (endpoint: mean survival time, dose: 2.0 mg/kg/injection, schedule: Q04DX003 (oral), vehicle: saline) was 110 % of control and the T/C (endpoint: mean survival time, dose: 2.0 mg/kg/injection, schedule: Q04DX003 (sc), vehicle: saline) was 106 % of control. The T/C (endpoint: mean survival time, dose: 2.0 mg/kg/injection, schedule: Q08DX002 (iv), vehicle: saline) was 106 % of control, the T/C (endpoint: mean survival time, dose: 2.0 mg/kg/injection, schedule: Q08DX002 (oral), vehicle: saline) was 103 % of control and the T/C (endpoint: mean survival time, dose: 2.5 mg/kg/injection, schedule: Q04DX003 (ip), vehicle: water) was 104 % of control. For the same compound, the T/C (endpoint: mean survival time, dose: 3.0 mg/kg/injection, schedule: Q01DX009 (oral), vehicle: saline) was 112 % of control, the T/C (endpoint: mean survival time, dose: 3.75 mg/kg/injection, schedule: Q01DX001 (ip), vehicle: water) was 103 % of control and the T/C (endpoint: mean survival time, dose: 3.75 mg/kg/injection, schedule: Q04DX003 (ip), vehicle: water) was 104 % of control. The T/C (endpoint: mean survival time, dose: 4.0 mg/kg/injection, schedule: Q01DX009 (ip), vehicle: saline) was 97 % of control, the T/C (endpoint: mean survival time, dose: 4.0 mg/kg/injection, schedule: Q04DX003 (ip), vehicle: water) was 113 % of control and 116 % of control and 117 % of control and the T/C (endpoint: mean survival time, dose: 4.0 mg/kg/injection, schedule: Q04DX003 (iv), vehicle: saline) was 108 % of control. The T/C (endpoint: mean survival time, dose: 4.0 mg/kg/injection, schedule: Q04DX003 (oral), vehicle: saline) was 108 % of control, the T/C (endpoint: mean survival time, dose: 4.0 mg/kg/injection, schedule: Q04DX003 (sc), vehicle: saline) was 110 % of control and the T/C (endpoint: mean survival time, dose: 4.0 mg/kg/injection, schedule: Q08DX002 (ip), vehicle: saline) was 112 % of control. For the same compound, the T/C (endpoint: mean survival time, dose: 4.0 mg/kg/injection, schedule: Q08DX002 (oral), vehicle: saline) was 110 % of control, the T/C (endpoint: mean survival time, dose: 4.0 mg/kg/injection, schedule: Q08DX002 (sc), vehicle: saline) was 108 % of control and the T/C (endpoint: mean survival time, dose: 4.0 mg/kg/injection, schedule: Q## X003 (ip), vehicle: saline) was 115 % of control. The T/C (endpoint: mean survival time, dose: 5.0 mg/kg/injection, schedule: Q04DX003 (ip), vehicle: water) was 109 % of control, the T/C (endpoint: mean survival time, dose: 6.0 mg/kg/injection, schedule: Q01DX009 (oral), vehicle: saline) was 108 % of control and the T/C (endpoint: mean survival time, dose: 6.0 mg/kg/injection, schedule: Q01DX015 (ip), vehicle: saline) was 102 % of control. The T/C (endpoint: mean survival time, dose: 7.5 mg/kg/injection, schedule: Q01DX001 (ip), vehicle: water) was 106 % of control, the T/C (endpoint: mean survival time, dose: 8.0 mg/kg/injection, schedule: Q01DX006 (ip), vehicle: saline) was 156 % of control and the T/C (endpoint: mean survival time, dose: 8.0 mg/kg/injection, schedule: Q04DX003 (ip), vehicle: water) was 109 % of control and 124 % of control. For the same compound, the T/C (endpoint: mean survival time, dose: 8.0 mg/kg/injection, schedule: Q04DX003 (iv), vehicle: saline) was 122 % of control, the T/C (endpoint: mean survival time, dose: 8.0 mg/kg/injection, schedule: Q04DX003 (oral), vehicle: saline) was 116 % of control and the T/C (endpoint: mean survival time, dose: 8.0 mg/kg/injection, schedule: Q04DX003 (sc), vehicle: saline) was 113 % of control. For the same compound, the T/C (endpoint: mean survival time, dose: 8.0 mg/kg/injection, schedule: Q08DX002 (ip), vehicle: saline) was 120 % of control, the T/C (endpoint: mean survival time, dose: 8.0 mg/kg/injection, schedule: Q08DX002 (oral), vehicle: saline) was 110 % of control and the T/C (endpoint: mean survival time, dose: 8.0 mg/kg/injection, schedule: Q08DX002 (sc), vehicle: saline) was 111 % of control. The T/C (endpoint: mean survival time, dose: 8.0 mg/kg/injection, schedule: Q## X002 (ip), vehicle: saline) was 118 % of control, the T/C (endpoint: mean survival time, dose: 8.0 mg/kg/injection, schedule: Q## X003 (ip), vehicle: saline) was 123 % of control and the T/C (endpoint: mean survival time, dose: 8.0 mg/kg/injection, schedule: Q## X008 (ip), vehicle: saline) was 110 % of control. The T/C (endpoint: mean survival time, dose: 8.0 mg/kg/injection, schedule: Q## X024 (ip), vehicle: saline) was 117 % of control, the T/C (endpoint: mean survival time, dose: 9.0 mg/kg/injection, schedule: Q01DX Z (ip), vehicle: methylcellulose (MC)) was 92 % of control and the T/C (endpoint: mean survival time, dose: 10.0 mg/kg/injection, schedule: Q04DX009 (ip), vehicle: water) was 121 % of control. For the same compound, the T/C (endpoint: mean survival time, dose: 15.0 mg/kg/injection, schedule: Q01DX001 (ip), vehicle: water) was 117 % of control, the T/C (endpoint: mean survival time, dose: 15.0 mg/kg/injection, schedule: Q04DX003 (ip), vehicle: Klucel (hydroxypropylcellulose) (HPC)) was 152 % of control and the T/C (endpoint: mean survival time, dose: 15.0 mg/kg/injection, schedule: Q04DX009 (ip), vehicle: water) was 160 % of control. The T/C (endpoint: mean survival time, dose: 16.0 mg/kg/injection, schedule: Q01DX001 (ip), vehicle: saline) was 121 % of control, the T/C (endpoint: mean survival time, dose: 16.0 mg/kg/injection, schedule: Q04DX003 (ip), vehicle: water) was 161 % of control and the T/C (endpoint: mean survival time, dose: 16.0 mg/kg/injection, schedule: Q## X003 (ip), vehicle: saline) was 171 % of control. For the same compound, the T/C (endpoint: mean survival time, dose: 20.0 mg/kg/injection, schedule: Q04DX003 (ip), vehicle: Klucel (hydroxypropylcellulose) (HPC)) was 162 % of control and 164 % of control, the T/C (endpoint: mean survival time, dose: 20.0 mg/kg/injection, schedule: Q04DX009 (ip), vehicle: water) was 168 % of control and the T/C (endpoint: mean survival time, dose: 22.2 mg/kg/injection, schedule: Q01DX001 (ip), vehicle: carboxymethylcellulose (CMC)) was 102 % of control. The T/C (endpoint: mean survival time, dose: 25.0 mg/kg/injection, schedule: Q04DX003 (ip), vehicle: saline with Tween-80) was 164 % of control, the T/C (endpoint: mean survival time, dose: 25.0 mg/kg/injection, schedule: Q04DX009 (ip), vehicle: water) was 118 % of control and the T/C (endpoint: mean survival time, dose: 30.0 mg/kg/injection, schedule: Q04DX003 (ip), vehicle: Klucel (hydroxypropylcellulose) (HPC)) was 95 % of control and 107 % of control. The T/C (endpoint: mean survival time, dose: 30.0 mg/kg/injection, schedule: Q04DX003 (ip), vehicle: saline with Tween-80) was 115 % of control, the T/C (endpoint: mean survival time, dose: 32.0 mg/kg/injection, schedule: Q04DX003 (ip), vehicle: water) was 154 % of control and the T/C (endpoint: mean survival time, dose: 32.0 mg/kg/injection, schedule: Q08DX002 (ip), vehicle: saline) was 152 % of control. The T/C (endpoint: mean survival time, dose: 33.35 mg/kg/injection, schedule: Q01DX001 (ip), vehicle: carboxymethylcellulose (CMC)) was 107 % of control, the T/C (endpoint: median survival time, dose: 3.75 mg/kg/injection, schedule: Q04DX003 (ip), vehicle: saline) was 116 % of control and the T/C (endpoint: median survival time, dose: 4.0 mg/kg/injection, schedule: Q04DX003 (ip), vehicle: saline) was 103 % of control. The T/C (endpoint: median survival time, dose: 7.5 mg/kg/injection, schedule: Q04DX003 (ip), vehicle: saline) was 122 % of control, the T/C (endpoint: median survival time, dose: 8.0 mg/kg/injection, schedule: Q01DX001 (ip), vehicle: saline) was 112 % of control and the T/C (endpoint: median survival time, dose: 15.0 mg/kg/injection, schedule: Q04DX003 (ip), vehicle: saline) was 161 % of control and 168 % of control. For the same compound, the T/C (endpoint: median survival time, dose: 16.0 mg/kg/injection, schedule: Q04DX003 (ip), vehicle: saline) was 166 % of control, the T/C (endpoint: median survival time, dose: 20.0 mg/kg/injection, schedule: Q04DX003 (ip), vehicle: saline) was 177 % of control and 179 % of control and the T/C (endpoint: median survival time, dose: 30.0 mg/kg/injection, schedule: Q04DX003 (ip), vehicle: saline) was 101 % of control. The T/C (endpoint: median survival time, dose: 32.0 mg/kg/injection, schedule: Q04DX003 (ip), vehicle: saline) was 110 % of control and the T/C (endpoint: median survival time, dose: 40.0 mg/kg/injection, schedule: Q04DX003 (ip), vehicle: saline) was 69 % of control.

Reference: PubChem BioAssay AID248 (DTP/NCI, 2004)
